The results in this text go back to PubChem BioAssay AID464 (The Scripps Research Institute Molecular Screening Center, 2006).

Calls of active or inactive are those of the source.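 The calls were made as follows: active = Compounds that kill half the cells at a concentration of 5 micromolar or below, from the fitted or estimated CC50; inactive = CC50 above 5 micromolar.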

In this test the test system is Jurkat E6.1 viability, ATP luminescence, 48 h. The test can be described thus: Jurkat E6.1 cell cytotoxicity, CC50 determination, dose response, cytotoxicity control, ATP luminescence, 48 h, 60K MLSMR (AID 464).
Regarding `COc1ccc(C2NCc3ccc4c(c3-n3cccc32)OCO4)cc1O` (configuration not stated), the CC50 was 0.999 µM.

For the compound `Oc1ccc(COCc2ccccc2)c2cccnc12`, the CC50 is 3.06 µM. Consider `O=C(Nc1ccc2c(c1)CCC2)C1CCN(c2c3c(nc4ncnn24)CCC3)CC1`, for which the CC50 was 4.5 µM. Turning to `O=C(Nc1nccs1)c1ccc(S(=O)(=O)NCC2CCCCC2)cc1`, the CC50 was > 40 µM (inactive). Consider `Cn1nc(CC(=O)Nc2ccc(N3CCN(C(=O)OC(C)(C)C)CC3)cc2)c2ccccc2c1=O`, for which the CC50 was > 13 µM (inactive). For `COc1ccccc1-c1cc(C(F)(F)F)nc(S(=O)(=O)CCCC(=O)N2CCOCC2)n1`, the 50% cytotoxic concentration (CC50) was 2.22 µM. Next, `O=c1cc(-c2ccccc2)[nH]c2nc3ccccc3n12`: 9.38 µM (inactive). As to `COC(=O)Nc1ccc(S(=O)(=O)N2CCCc3ccccc32)cc1`, the CC50 was 1.06 µM.

Regarding `C=CCN1C(=Nc2cccnc2)SCC1(O)c1ccc(C)cc1` (configuration not stated), the CC50 is 17.9 µM (inactive). As to `COc1ccc(-c2cn3c(C)c(C(=O)Nc4cc(NC(C)=O)ccc4OC)sc3n2)cc1`, the 50% cytotoxic concentration (CC50) was 2.23 µM. As to `Nc1nonc1-c1nc2ccccc2n1Cc1ccccc1`, the CC50 is 6.41 µM (inactive). Regarding `Cc1c(C(=O)OCC2CCCO2)[nH]c2c1C(=O)CC(c1ccco1)C2` (configuration not stated), the 50% cytotoxic concentration (CC50) was 2.6 µM. Next, `O=c1cc(-c2ccccc2)[nH]c2ccccc12`: 0.373 µM; `C=CCn1c(O)c(C(C)=NCc2cc(OC)cc(OC)c2)c(=O)[nH]c1=O`: 7.66 µM (inactive). Turning to `O=S(=O)(CCSc1ccccn1)c1nc2ccccc2s1`, the CC50 is 11.8 µM (inactive). With `CCc1ccc2nc(NC(=O)c3cc(C)on3)sc2c1`, the half-maximal cytotoxic concentration (CC50) was 3.71 µM. With `CCOC(=O)N1CCC(NC(=O)c2ccc3c(c2)sc2nc(-c4cccc(OC)c4)cn23)CC1`, the CC50 is 35.1 µM (inactive).

As for `CC1=C(C(=O)OCc2ccc3c(c2)OCO3)C(c2ccc(F)cc2)NC(=O)N1` (configuration not stated), the CC50 was 3.57 µM. Next, `Cc1onc(-c2ccccc2)c1C(=O)Nc1cc(C(F)(F)F)ccc1N1CCOCC1`: 2.15 µM; `CCCCNc1ncnc2c1cnn2-c1ccccc1`: 2.39 µM; `Cc1cccc(Cn2c(=O)n(CCCC(=O)NCc3ccco3)c(=O)c3ccccc32)c1`: 5.14 µM (inactive). For `C/C(N)=C(/C#N)C(=O)CSc1nnnn1-c1ccc(C)cc1C`, the CC50 is > 40 µM (inactive). For `O=C(Nc1ccccc1)N1CCC(c2nc(-c3ccc(S(=O)(=O)N4CCOCC4)cc3)no2)CC1`, the CC50 is > 40 µM (inactive). Next, `COc1ccc(C2=Nn3c(nnc3-c3ccccc3OC)SC2)cc1OC`: 0.116 µM. For `O=S1(=O)Nc2c(ccc3cccnc23)-c2ccccc21`, the cytotoxic concentration (CC50) is 4.74 µM. For `Nc1c(C(=O)Nc2ccc3c(c2)OCCO3)nnn1CCc1ccccc1`, the CC50 is 4.23 µM. Next, `CCOc1ccc(-c2cc(CCCC(=O)Nc3cccc(OC)c3)no2)cc1`: 0.809 µM; `O=C1CN=C(c2cccs2)c2c(sc3c2CCCC3)N1`: 7.46 µM (inactive).

For `CNc1nc(C)c(C(=O)OCc2ccccc2)s1`, the CC50 was 9.81 µM (inactive).

Regarding `CCOC(=O)N1CCN(CC(=O)Nc2c(C(=O)OC)[nH]c3ccc(Cl)cc23)CC1`, the CC50 is > 40 µM (inactive). As for `COc1ccc(CCNc2c(C)c(C)nc3ncnn23)cc1`, the CC50 was > 13 µM (inactive). As for `Cc1oc(-c2ccc(Cl)cc2)nc1CN1CCCC(C(=O)N2CCN(C(=O)c3ccco3)CC2)C1` (configuration not stated), the CC50 was 2.07 µM. With `CCCCCCn1ccc(=N)cc1`, the CC50 is 5.08 µM (inactive). In the case of `CCOC(=O)N1CCN(c2c(NCc3cccs3)c(=O)c2=O)CC1`, the CC50 was 5.79 µM (inactive).

In the case of `Cc1noc(C)c1COC(=O)c1cccc(S(=O)(=O)N2CCCCCC2)c1`, the CC50 was 21.4 µM (inactive).

Turning to `Cn1c(=O)oc2cc(S(=O)(=O)N3CCCc4ccccc43)ccc21`, the 50% cytotoxic concentration (CC50) is 0.173 µM.

For the compound `O=C(c1ccc2c(c1)ncn2C1CCCCC1)N1CCC2(CC1)OCCO2`, the CC50 is 5.19 µM (inactive).
